Where a name gives a salt, the structure may show the parent alone.

The subject of data set [1] is AWA activity. Description: Nemadipine-A treatment of multi-well plate embedded animals, optogenetically-evoked calcium responses. The format is in vivo, C. elegans. The note with it: 10, 50, 100 uM vs 1% DMSO control, stimulated every 10 min for 24 hours; dose dependence. The procedure: A small volume (10 uL) of PEG hydrogel solution (10% with 0.5×S. basal) with photoinitiator was pipetted into each PCR tube (one tube per one well). Young adult animals (CX16573) were transferred into the hydrogel solution by worm pick (up to 40 or more). The hydrogel and worm solution was transferred from one PCR tube to the bottom of one well of a 384 well plate, and repeated for as many PCR tubes prepared. The 384 well plate was placed into −20° C. freezer for no more than 10 min, then immediately placed on the 308 nm light source to crosslinking for no more than 45 s. Then, a small volume (60 uL) of 1 mM ATR in water was pipetted into crosslinked wells, covered, placed in the dark, and allowed to incubate for at least 1 hr, or up to 24 hrs. Animals were then imaged on a custom designed microscope and optical configuration allowing for both red-light excitation and blue-light excitation sent through the objective, all set by the initial experimental settings. Red light pulse durations, well position, cycle number and cycle delay conditions were set by a custom MicroManager script, and executed.
After crosslinking and before all-trans retinal (ATR) transfer to each well, solutions of 10 μM, 50 μM, and 100 μM nemadipine-A to a final concentration of 1% DMSO in 1 mM ATR were prepared. A control well containing only 1% DMSO in 1 mM ATR was prepared as well. […]

Data set [2] has as its system AWA sensory neuron pair. The data set can be described thus: Microfluidic chemical pulse stimulation of hydrogel-embedded C. elegans, GCaMP light sheet imaging. The format is in vivo. To be noted: 5-s and 10-s pulses. An excerpt:
Wild-type C. elegans expressing GCaMP in the AWA sensory neuron pair were encapsulated in a hydrogel disk above a 100 μm wide microfluidic channel. External tubing connections and valves delivered 1, 5, or 10 second long pulses of chemical flow beneath the hydrogel disk. Small molecule chemicals (MW<500 Da) diffuse rapidly through the hydrogel, typically in under 1 second, to reach the encapsulated organism(s).

Data set [3] relates to C. elegans. Description: Quantification of movement of hydrogel-embedded animals. It counts as in vivo. The procedure:
Young adult QW1217 worms with pan-neuronal expression of nuclear-localized mCherry were embedded in 10% and 20% PEG hydrogels (3 μL with 100 μm spacer, 0.1% I2959, 20 s exposure using a 312 nm UV source). Worms received either no pretreatment, exposure to hypoosmotic (diH2O, 0 mOsm) or hyperosmotic buffers (0.5 M glycerol in diH2O, 500 mOsm or 1.5×S-Basal, 420 mOsm) for 10 min, or cooling in a −20° C. freezer or in contact with ice for 1-3 min prior to crosslinking. PEG hydrogel solutions were prepared in diH2O or S-Basal buffer, and some contained the paralytic reagents 25 mM sodium azide (Massie et al., 2003) or 1 mM tetramisole hydrochloride (Sigma) (Larsch et al., 2013). Other hydrogel solutions were prepared in 500 mM glycerol or 1.5×S-Basal hyperosmotic buffers. After crosslinking, all hydrogels were submerged in an aqueous solution of either S-Basal, diH20, sodium azide (25 mM) or tetramisole (1 mM) for imaging. Videos were captured with a Hamamatsu Orca-Flash 4.0 camera at 1 frame/sec for 3 min on a Zeiss AxioObserver inverted epifluorescence microscope with a 20×/0.5 NA objective.
Animal movement was analysed by comparing frame-to-frame image differences. Movement index is described using the equation M.I.=ΔIROI/IROI−IBG, where ΔIROI represents the difference in pixel intensity between consecutive frames, averaged across a region of interest (ROI), IROI represents the average intensity of the ROI, and IBG represents the average intensity of a Background region. […] First, the absolute value differences between each pair of consecutive frame averaged pixel intensities were calculated. Next, the difference image stack was smoothed (average of its 3×3 neighborhood). To reduce the contribution of pixel noise, a value of 10 (corresponding to average pixel noise) was subtracted uniformly from each frame and negative values were set to 0. Regions of Interest (ROIs) were selected over the head (nerve ring) and ventral cord and a background region (BG). The movement index was calculated as […], where ΔIROI is the mean of difference images across the ROI, and ΔIROI and IBG, are the mean intensity of the ROI and background regions for the first frame, respectively. Here, identical sequential frames would have a M.I. of zero, whereas images that have changes in position, rotation, focus, or intensity have increasing M.I. values.
Movement in the image plane was quantified by tracking cell nucleus position over 3 minutes. Individual neurons were tracked using NeuroTracker (Larsch et al., 2013) and centroid positions were used to determine the range of axial movement by the animal.

Data set [4] has as its system C. elegans. To be noted: 25 mM sodium azide, agarose pad.
Experimental: For hydrogel encapsulation, 5 μL of a 10% PEG hydrogel with 0.1% I2959 containing late L1/L2 stage animals was placed on a fluorinated glass slide with 50 μm thick tape spacers, polymerized with 312 nm UV light, and imaged on an upright Zeiss Axioskop microscope with a 100×/1.4 NA objective using DIC optics. Images were captured every hour for 12 hours without movement of the sample. For comparison, animals were mounted onto conventional agarose pads with chemical or physical restraint. […] Animals were picked into this droplet and a cover slip was placed on top before imaging. Alternatively, a 0.25-0.5 μL drop of polystyrene nanobeads (100 nm, Polysciences, Inc.) was placed on a 10% agarose pad prior to adding animals, a cover slip, and imaging.
Data set [5] concerns AWA chemosensory neuron calcium responses. Description: Automated small-molecule screening of optogenetically-evoked calcium activity suppressors (LOPAC library). The format is in vivo, C. elegans. To be noted: 10 μM, 1% DMSO, about 18 hours exposure; beyond mean ± 3 standard deviations.
Experimental: For all well plate experiments, equal parts of 20% PEGDA (0.1% Irgacure) was added to a synchronized animal population in M9, resulting in ˜5 an/μL, 10% PEGDA, 0.05% Irgacure, and 0.5×M9. […] Both procedures used repeated mixing (4-5×) to maintain an even animal suspension during transfer. The animal-containing multiwell plate was transiently cooled for 10 min at −20° C. to settle animals at the bottom of the well, then immediately exposed to 308 nm UV light to photo-crosslink and embed the animals. Single wells can also be prepared by standard picking and transfer of animals to a final 10% gel solution (using PCR tubes), depending on experimental design or desired throughput.
Aliquoted LOPAC drug library plates were received from the UMMS small-molecule screening facility as 16 individual 96-well plates containing 3 nmol of compound per well (3 μL of 1 mM in 100% DMSO), stored at −80° C. until use. […]
A suite of custom ImageJ macros was developed for automated neuron selection and trace recording (aNT), or to manually select neurons (neuronPos) and then record calcium intensity in each well across all wells and cycles automatically (NT). […] Local background subtracted fluorescence (F) was calculated as F=(FR−Fbg).
[6] abbreviates: hyper-osmotic solution (0.5 M glycerol 500 mOsm or 1.5x S-Basal 420 mOsm) 10 min prior to or during crosslinking, imaged in S-Basal buffer.

Take `CCOC(=O)C1=C(C)NC(C)=C(C(=O)OCC)C1c1c(F)c(F)c(F)c(F)c1F` [Nemadipine-A]: the “Peak calcium response (change in fluorescence) of AWA” value in data set [1] is reported as “reduction in peak response”.
Turning to `CC(=O)C(C)=O` [diacetyl], the “AWA neuron response (relative integrated fluorescence) to odor stimulation” value in data set [2] is “stimulated one of the two neurons”.
For `c1ccc(C2CN3CCSC3=N2)cc1` (stereo not drawn) [tetramisole, tetramisole hydrochloride], in data set [3] (in vivo), the “Movement (displacement range) over 3 minutes” value came out at 19 μm, the “Movement index (M.I.)” value came out at 0.06±0.02 and the “Reduction of movement index” value is 5 fold.
As for `[N-]=[N+]=[N-]` [sodium azide], in data set [4], the “Cell death in paralyzed animals” value was “characteristics of necrotic cell death after 6 hours”. Moreover, the “Reduction of movement index” value in data set [3] (20% PEG hydrogels, paralytic vs no paralytic, P<0.0001) was determined as 5 fold. Further, the “Movement index (M.I.)” value in data set [3] (C. elegans embedded in 20% PEG hydrogels, mean over 3 min, 25 mM sodium azide or 1 mM tetramisole during gelation or transiently after encapsulation, hydrogel alone without paralytic) is reported as 0.07±0.01. Moreover, the “Movement (displacement range) over 3 minutes” value in data set [3] (C. elegans embedded in 20% PEG hydrogels, 25 mM sodium azide or 1 mM tetramisole, hydrogel alone without paralytic) is 18 μm.
On to ivermectin, for which the “Screen result: relative peak ΔF/F0 calcium response, fold change cycle 4 to 1” value in data set [5] is “positive hits”.
Turning to `OCC(O)CO` [glycerol], in data set [3] (setting [6]), the “Movement index (M.I.)” value was found to be 0.02±0.007 and the “Range of movement over 3 min” value turned out to be 8±7 μm.

Source of the values: patent publication US11248995B2, “Hydrogel encapsulation of living organisms for long-term microscopy” (priority 2017, dated 2022).
